Data: patent US20230233569A1 (Revolution Medicines, Inc., priority 2020, published 2023)
Like-named read-outs stand apart in the source and are kept apart here.

Assays:
AsPC-1 (K-Ras G12D) [1] = assay: CellTiter-Glo cell viability assay; format: cell-based; conditions: Homo sapiens, ASPC1, 120 h
Experimental: Determination of Cell Viability in RAS Mutant Cancer Cell Lines
Protocol: CellTiter-Glo® Cell Viability Assay
Note—The following protocol describes a procedure for monitoring cell viability of K-Ras mutant cancer cell lines in response to a compound of the invention. Other RAS isoforms may be employed, though the number of cells to be seeded will vary based on cell line used.
Test compounds (132.5 nL) were directly dispensed into the assay plates containing cells. […] On day 5, assay plates and their contents were equilibrated to room temperature for approximately 30 minutes. […] Luminescence was measured using the PerkinElmer Enspire. Data were normalized by the following: (Sample signal/Avg. DMSO)*100. The data were fit using a four-parameter logistic fit.

AsPC-1 (K-Ras G12D) [2] = assay: Potency assay: pERK; format: cell-based; conditions: Homo sapiens
KRAS WT = KRAS WT (Homo sapiens, UniProt P01116+P62937); assay: Ras-Raf disruption / FRET / MOA assay (BRAF RBD); format: biochemical; conditions: KRAS WT FRET data IC50, Ras-Raf disruption, with Cyclophilin A
Method in brief: (§1)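 TR-FRET in 25 mM HEPES pH 7.3, 100 mM NaCl, 5 mM MgCl2, 0.1% BSA, 0.002% Tween20 with 25 μM Cyclophilin A, 12.5 nM His6-Ras-GMPPNP, 50 nM GST-BRAF RBD; compound 10-point 3-fold series from 30 μM. After 3 h at 25 °C, Eu anti-His/APC anti-GST added for 1.5 h; IC50 from ratio decrease versus DMSO.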

KRAS G12D [3] = biological target: T1, KRAS G12D (Homo sapiens, UniProt P01116+P62937, G12D); assay: Ras-Raf disruption / FRET / MOA assay (BRAF RBD); format: biochemical; conditions: KRAS G12D FRET data IC50, Ras-Raf disruption, with Cyclophilin A
Method in brief: as §1

NRAS G12C [4] = biological target: T2, NRAS G12C (Homo sapiens, UniProt P01111+P62937, G12C); assay: Ras-Raf disruption / FRET / MOA assay (BRAF RBD); format: biochemical; conditions: NRAS G12C FRET data IC50, NRAS G12C
Method in brief: as §1

KRAS G12S = KRAS G12S (Homo sapiens, UniProt P01116+P62937, G12S); assay: Ras-Raf disruption / FRET / MOA assay (BRAF RBD); format: biochemical; conditions: KRAS G12S FRET data IC50, Ras-Raf disruption, with Cyclophilin A
Method in brief: as §1

KRAS G12V = KRAS G12V (Homo sapiens, UniProt P01116+P62937, G12V); assay: Ras-Raf disruption / FRET / MOA assay (BRAF RBD); format: biochemical; conditions: KRAS G12V FRET data IC50, Ras-Raf disruption, with Cyclophilin A
Method in brief: as §1

KRAS G13D = KRAS G13D (Homo sapiens, UniProt P01116+P62937, G13D); assay: Ras-Raf disruption / FRET / MOA assay (BRAF RBD); format: biochemical; conditions: KRAS G13D FRET data IC50, Ras-Raf disruption, with Cyclophilin A
Method in brief: as §1

KRAS G13C = KRAS G13C (Homo sapiens, UniProt P01116+P62937, G13C); assay: Ras-Raf disruption / FRET / MOA assay (BRAF RBD); format: biochemical; conditions: KRAS G13C FRET data IC50, Ras-Raf disruption, with Cyclophilin A
Method in brief: as §1

KRAS G12C [5] = biological target: T3, KRAS G12C (Homo sapiens, UniProt P01116+P62937, G12C); assay: Ras-Raf disruption / FRET / MOA assay (BRAF RBD); format: biochemical; conditions: KRAS G12C FRET data IC50, Ras-Raf disruption, with Cyclophilin A
Method in brief: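 His6-K-Ras G12C-GMPPNP (12.5 nM), GST-BRAF RBD (50 nM) and tagless Cyclophilin A (25 μM) incubated 3 h at 25 °C with compound (10-point 3-fold series from 30 μM), pH 7.3 HEPES buffer. Anti-His Eu/anti-GST APC added for 1.5 h; decreased TR-FRET ratio vs DMSO gives IC50.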
Target sequence in this assay (P01116 1-169 isoform P01116-2 G12C limits assumed): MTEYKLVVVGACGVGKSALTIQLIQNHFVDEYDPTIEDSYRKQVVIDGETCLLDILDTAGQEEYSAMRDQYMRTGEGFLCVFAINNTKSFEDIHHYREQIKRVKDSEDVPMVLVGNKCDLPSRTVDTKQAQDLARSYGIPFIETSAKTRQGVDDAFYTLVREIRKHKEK
Target sequence in this assay (P62937 whole entry): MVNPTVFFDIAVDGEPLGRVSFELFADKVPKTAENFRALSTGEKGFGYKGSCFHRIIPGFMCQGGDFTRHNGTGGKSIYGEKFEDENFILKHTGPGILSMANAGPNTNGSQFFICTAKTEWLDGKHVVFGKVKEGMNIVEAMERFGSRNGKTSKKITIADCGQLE

[6] = test system: K-Ras G12C (NCI-H358 cells); assay: Potency assay: pERK (AlphaLISA SureFire or In-Cell Western); format: cell-based; conditions: Homo sapiens, NCI-H358; H358 KRAS G12C; read-out: pERK EC50
Method in brief: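 NCI-H358 cells plated overnight, then treated 4 h at 37 °C with 10-point 3-fold DMSO dilutions (10 mM top stock), in duplicate. pERK1/2 read by AlphaLISA SureFire Ultra lysate assay or by In-Cell Western with DRAQ5 DNA stain. IC50 from 4-parameter sigmoidal fit of signal vs log concentration.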

KRAS G12D [7] = biological target: T1, KRAS G12D; assay: Disruption of BRAF RBD interaction with Ras (FRET / MOA assay, with Cyclophilin A); format: biochemical; conditions: read-out: KRAS G12D FRET data, IC50
Method in brief: (§2)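 First, compounds at a ten-point threefold dilution series (highest final concentration 30 μM) were incubated with nucleotide-loaded K-Ras, Cyclophilin A and BRAF RBD for 3 h at 25 °C. Next, detection antibodies were added for 1.5 h. Finally, IC50 was calculated from TR-FRET ratio decreases against DMSO controls.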

KRAS G12C [8] = biological target: T3, KRAS G12C; assay: as above; format: biochemical; conditions: KRAS G12C; read-out: KRAS G12C FRET data IC50
Method in brief: as §2
Target sequence in this assay (P01116 1-169 isoform P01116-2 G12C): as the sequence (P01116 1-169 isoform P01116-2 G12C limits assumed) above
Target sequence in this assay (P62937 whole entry): as the sequence (P62937 whole entry) above

NRAS G12C [9] = biological target: T2, NRAS G12C; assay: as above; format: biochemical; conditions: NRAS G12C; read-out: NRAS G12C FRET data IC50
NCI-H358 (K-Ras G12C) = assay: CellTiter-Glo cell viability assay, 5-day treatment; format: cell-based; conditions: Homo sapiens, NCI-H358, H358, K-Ras G12C; read-out: Additional H358 Cell Viability assay data (K-Ras G12C, IC50)
Method in brief: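 Five-day compound treatment of plated cells; luminescent read after ~30 min at RT. Percent-of-DMSO data fit to a four-parameter logistic model.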

NRAS Q61K = NRAS Q61K (Homo sapiens, UniProt P01111+P62937, Q61K); assay: Disruption of BRAF RBD interaction with Ras (FRET / MOA assay, with Cyclophilin A); format: biochemical; conditions: NRAS Q61K; read-out: NRAS Q61K FRET data IC50
Method in brief: (§3)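 TR-FRET in 25 mM HEPES pH 7.3, 100 mM NaCl, 5 mM MgCl2, 0.1% BSA: 25 μM Cyclophilin A, 12.5 nM His6-Ras-GMPPNP, 50 nM GST-BRAF RBD with compound (10-point 3-fold series from 30 μM), 3 h at 25° C. Anti-His Eu/anti-GST APC added, 1.5 h more; IC50 from decreased FRET ratio versus DMSO.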

NRAS Q61R = NRAS Q61R (Homo sapiens, UniProt P01111+P62937, Q61R); assay: as above; format: biochemical; conditions: NRAS Q61R; read-out: NRAS Q61R FRET data IC50
Method in brief: as §3

[10] = read-out: AsPC-1 Cell Viability assay data IC50, K-Ras G12D, 5-day treatment

T1 sequence (P01116 1-169 isoform P01116-2 G12D limits assumed): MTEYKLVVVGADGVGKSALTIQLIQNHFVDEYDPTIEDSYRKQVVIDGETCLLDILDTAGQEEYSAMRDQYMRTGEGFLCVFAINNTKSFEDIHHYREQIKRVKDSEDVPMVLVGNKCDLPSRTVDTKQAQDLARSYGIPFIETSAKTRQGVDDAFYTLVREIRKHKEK
T1 sequence (P62937 whole entry): as the sequence (P62937 whole entry) above
T2 sequence (P01111 whole entry G12C): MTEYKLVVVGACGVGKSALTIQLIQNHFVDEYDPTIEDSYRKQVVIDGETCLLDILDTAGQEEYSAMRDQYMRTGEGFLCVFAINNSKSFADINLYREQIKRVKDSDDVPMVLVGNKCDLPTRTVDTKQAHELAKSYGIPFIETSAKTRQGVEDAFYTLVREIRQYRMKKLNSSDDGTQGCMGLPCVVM
T2 sequence (P62937 whole entry): as the sequence (P62937 whole entry) above
Chain of KRAS G12V (P01116 1-169 isoform P01116-2 G12V limits assumed): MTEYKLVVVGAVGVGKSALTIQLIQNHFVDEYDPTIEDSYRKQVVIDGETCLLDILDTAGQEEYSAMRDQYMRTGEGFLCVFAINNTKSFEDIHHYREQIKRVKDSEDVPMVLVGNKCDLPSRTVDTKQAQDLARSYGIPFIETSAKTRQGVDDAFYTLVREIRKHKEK
Chain of KRAS G12V (P62937 whole entry): as the sequence (P62937 whole entry) above
Chain of KRAS G12S (P01116 1-169 isoform P01116-2 G12S limits assumed): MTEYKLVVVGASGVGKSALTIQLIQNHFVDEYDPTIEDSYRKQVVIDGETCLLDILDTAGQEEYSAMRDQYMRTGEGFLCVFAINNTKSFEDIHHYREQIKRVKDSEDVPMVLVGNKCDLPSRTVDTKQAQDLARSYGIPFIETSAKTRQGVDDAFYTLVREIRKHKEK
Chain of KRAS G12S (P62937 whole entry): as the sequence (P62937 whole entry) above
Chain of KRAS WT (P01116 1-169 isoform P01116-2 limits assumed): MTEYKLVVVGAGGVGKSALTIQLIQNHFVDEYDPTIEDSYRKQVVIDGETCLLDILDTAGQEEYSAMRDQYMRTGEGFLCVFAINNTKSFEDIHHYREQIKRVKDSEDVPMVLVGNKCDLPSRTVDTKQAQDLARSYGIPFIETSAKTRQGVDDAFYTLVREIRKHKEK
Chain of KRAS WT (P62937 whole entry): as the sequence (P62937 whole entry) above
Chain of KRAS G13D (P01116 1-169 isoform P01116-2 G13D limits assumed): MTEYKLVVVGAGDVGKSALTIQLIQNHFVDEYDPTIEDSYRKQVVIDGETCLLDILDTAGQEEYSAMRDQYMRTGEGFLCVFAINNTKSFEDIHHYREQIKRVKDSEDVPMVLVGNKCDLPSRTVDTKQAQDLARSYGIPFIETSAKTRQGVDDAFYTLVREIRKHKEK
Chain of KRAS G13D (P62937 whole entry): as the sequence (P62937 whole entry) above
Chain of NRAS Q61R (P01111 whole entry Q61R): as the sequence (P01111 whole entry G12C) above, with C12G, Q61R counted along it
Chain of NRAS Q61R (P62937 whole entry): as the sequence (P62937 whole entry) above
Chain of KRAS G13C (P01116 1-169 isoform P01116-2 G13C limits assumed): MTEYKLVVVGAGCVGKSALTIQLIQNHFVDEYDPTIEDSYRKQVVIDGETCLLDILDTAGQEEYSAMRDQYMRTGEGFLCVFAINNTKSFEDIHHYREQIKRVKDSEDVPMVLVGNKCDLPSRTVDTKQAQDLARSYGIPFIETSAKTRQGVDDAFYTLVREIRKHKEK
Chain of KRAS G13C (P62937 whole entry): as the sequence (P62937 whole entry) above
Chain of NRAS Q61K (P01111 whole entry Q61K): as the sequence (P01111 whole entry G12C) above, with C12G, Q61K counted along it
Chain of NRAS Q61K (P62937 whole entry): as the sequence (P62937 whole entry) above

## CCn1c(-c2cnccc2COC)c2c3cc(ccc31)-c1cc(O)cc(c1)C[C@H](NC(=O)[C@H](C(C)C)N(C)C(=O)CN(C)C(=O)[C@H]1N[C@H]1C(=O)OC)C(=O)N1CCC[C@H](N1)C(=O)OCC(C)(C)C2 [Example 51]
AsPC-1 (K-Ras G12D) [1]; [10]
  IC50: > 10 µM
AsPC-1 (K-Ras G12D) [2]; ASPC1, read-out: pERK EC50
  EC50: < 5 µM

## CCn1c(-c2cnccc2COC)c2c3cc(ccc31)-c1cc(O)cc(c1)C[C@H](NC(=O)[C@H](C(C)C)N(C)C(=O)CN(C)C(=O)[C@H]1N[C@H]1C1CC1)C(=O)N1CCC[C@H](N1)C(=O)OCC(C)(C)C2 [Example 104]
AsPC-1 (K-Ras G12D) [1]; [10]
  IC50: 1 to 10 µM
AsPC-1 (K-Ras G12D) [2]; ASPC1, read-out: pERK EC50
  EC50: < 5 µM

## CCn1c(-c2cccnc2[C@H](C)OC)c2c3cc(ccc31)-c1cc(O)cc(c1)C[C@H](NC(=O)[C@@H](C(C)C)N(C)C(=O)[C@@]1(C)CCCN1C(=O)[C@@H]1CN1)C(=O)N1CCC[C@H](N1)C(=O)OCC(C)(C)C2 [Example 242]
AsPC-1 (K-Ras G12D) [1]; K-Ras G12D, 5-day treatment, read-out: AsPC-1 Cell Viability assay data IC50
  IC50: 1 to 10 µM
AsPC-1 (K-Ras G12D) [2]; ASPC1, AsPC-1 KRAS G12D, read-out: pERK EC50
  EC50: < 5 µM

## CCn1c(-c2cnccc2COC)c2c3cc(ccc31)-c1cc(O)cc(c1)C[C@H](NC(=O)[C@H](C(C)C)N(C)C(=O)CN(C)C(=O)[C@@H]1N[C@@H]1C)C(=O)N1CCC[C@H](N1)C(=O)OCC(C)(C)C2 [Example 105]
AsPC-1 (K-Ras G12D) [1]; [10]
  IC50: 1 to 10 µM
AsPC-1 (K-Ras G12D) [2]; ASPC1, read-out: pERK EC50
  EC50: < 5 µM

## CCn1c(-c2cccnc2[C@H](C)OC)c2c3cc(ccc31)-c1cc(O)cc(c1)C[C@H](NC(=O)[C@H](C(C)C)N(C)C(=O)CN(C)C(=O)[C@H]1N[C@@H]1C1CC1)C(=O)N1CCC[C@H](N1)C(=O)OCC(C)(C)C2 [Example 135]
AsPC-1 (K-Ras G12D) [1]; [10]
  IC50: 0.1 to 1 µM
KRAS WT
  IC50: 0.01 to 0.1 µM
KRAS G12D [3]
  IC50: 0.01 to 0.1 µM
NRAS G12C [4]
  IC50: < 0.01 µM
KRAS G12S
  IC50: < 0.01 µM
KRAS G12V
  IC50: 0.01 to 0.1 µM
KRAS G13D
  IC50: 0.01 to 0.1 µM
KRAS G13C
  IC50: < 0.01 µM
KRAS G12C [5]
  IC50: < 0.01 µM

## CCn1c(-c2cnccc2COC)c2c3cc(ccc31)-c1cc(O)cc(c1)C[C@H](NC(=O)[C@H](C(C)C)N(C)C(=O)CN(C)C(=O)[C@@H]1N[C@@H]1c1ccccc1)C(=O)N1CCC[C@H](N1)C(=O)OCC(C)(C)C2 [Example 110]
AsPC-1 (K-Ras G12D) [1]; [10]
  IC50: 1 to 10 µM
AsPC-1 (K-Ras G12D) [2]; ASPC1, read-out: pERK EC50
  EC50: < 5 µM

## CCn1c(-c2cccnc2[C@H](C)OC)c2c3cc(ccc31)N1CCC[C@@H](C[C@H](NC(=O)[C@H](C(C)C)N(C)C(=O)C3(F)CCN(C(=O)C#CC(C)(C)N(C)C)CC3)C(=O)N3CCCC(N3)C(=O)OCC(C)(C)C2)C1 [Example A616]
[6]
  EC50: < 5 µM
KRAS G12D [7]
  IC50: > 10 µM
KRAS G12C [8]
  IC50: 0.01 to 0.1 µM
NRAS G12C [9]
  IC50: < 0.01 µM
NCI-H358 (K-Ras G12C)
  IC50: < 0.01 µM
NRAS Q61K
  IC50: > 10 µM
NRAS Q61R
  IC50: > 10 µM
